Molecules are shown by their SMILES.

The values below come from patent US10085450B2, “Tetrazolinone compound and use thereof” (SUMITOMO CHEMICAL COMPANY, LIMITED, priority 2013, dated 2018).

Experiment [1] deals with common house mosquito (Culex pipiens pallens). Kind of experiment: whole plant or invertebrate. Particulars: 24 h.
Experimental: The test chemical solution (0.7 mL) was added to 100 mL of deionized water to thereby adjust the concentration of the active ingredient to 3.5 ppm. Twenty (20) heads of last instar larvae of common house mosquito (Culex pipiens pallens) were released in the solution. After 1 day, the number of the dead insects was counted.
Mortality was determined by the following equation. Mortality (%)=(number of dead insects/number of tested insects)×100
Experiment [2] concerns diamondback moth (Plutella xylostella). Kind of experiment: Test Example 20: diamondback moth larvae mortality on sprayed cabbage. The class given is in vivo. Particulars: 120 h. The procedure: Cabbage (cultivar: GREEN BALL) was sowed and grown in a polyethylene cup until the third to fourth true leaf was developed. The test chemical solution was sprayed over the cabbage at a rate of 20 mL per cup. After drying the chemical solution, the cabbage cut from the base was disposed in a polyethylene cup (5.5 cm in diameter) with a filter paper laid on the bottom. Five (5) heads of third-instar larvae of diamondback moth (Plutella xylostella) were released and then a lid was put on the cup. After storage at 25° C. for 5 days, the number of the surviving insects was counted and mortality was calculated by the following equation.

For experiment [3], the system named is rice blast fungus (Magnaporthe grisea). The format is in vivo. Conditions: 500 ppm water dilution sprayed on rice (NIHONBARE); contact with infected rice seedling for 6 days.
Experiment [4] relates to tomato late blight fungus (Phytophthora infestans). The format is in vivo. Conditions: 500 ppm water dilution sprayed on tomato (PATIO) seedling; spores inoculated after air-drying.

Turning to `Cc1cccc(-n2nnn(C)c2=O)c1COc1ccc(-c2ccc(Cl)cc2)s1` [present compound 15, 1-{2-[5-(4-chlorophenyl)thiophen-2-yloxymethyl]-3-methylphenyl}-4-methyl-1,4-dihydrotetrazol-5-one], the mortality (commonly the share of the test organisms that died) at 3.5 ppm in experiment [1] turned out to be 95%.

With `Cc1cccc(-n2nnn(C)c2=O)c1COc1cc(-c2ccc(Cl)cc2)nn1C` [present compound 4], in experiment [2], the mortality at 500 ppm is at least 80%. Still for that read-out and setting: as for `Cc1cccc(-n2nnn(C)c2=O)c1COc1csc(-c2ccccc2)n1` [present compound 10], the figure is at least 80%. As to `Cc1cccc(-n2nnn(C)c2=O)c1COc1nn(C)c(-c2ccc(Cl)cc2)c1C` [present compound 29, 1-(2-{[1,4-dimethyl-5-(4-chlorophenyl)-1H-pyrazol-3-yloxy]methyl}-3-methylphenyl)-4-methyl-1,4-dihydrotetrazol-5-one], in experiment [1], the mortality at 3.5 ppm was 95%. Regarding `Cc1cccc(-n2nnn(C)c2=O)c1COc1c(C)c(-c2ccccc2)nn1C` [present compound 8], the “lesion areas on the treated plant with respect to the lesion area on the non-treated plant” value in experiment [3] is recorded as at most 30%. Further, in experiment [4], the “area of lesion spots on the treated plant relative to that on an untreated plant” value is given as at most 30%.
